Experimental data reported in patent US20230218675A1, “EXOSOMES ISOLATED FROM DERMAL PAPILLA PROGENITOR CELLS, AND USE THEREOF” (CELLPARK GLOBAL, priority 2020, published 2023).

Tested on: human hair follicles
Test: Human hair follicle organ culture, hair follicle length growth evaluation 1
Type: cell-based
Conditions: for 6 days; exosomes 1.0×10^9 particles, minoxidil 1 μM
Description: In order to evaluate effects of the exosomes of the present invention on human hair follicle growth, a human hair follicle organ culture test (ex vivo hair follicle organ culture) was conducted. More specifically, scalp tissues were isolated into the unit of hair follicles, and the remaining hair follicles were used after cutting the part below the sebaceous gland of the isolated hair follicles. The prepared hair follicles were treated with Examples 1 and 2, and minoxidil as a positive control, respectively, and lengths of the hair growing on the 3rd and 6th days were measured, followed by comparing the measured results to the negative control in order to evaluate a length growth and a growth cycle of human hair follicles. […] The lengths of the hair follicles grown on the 3rd and 6th days of the culture, respectively, were measured using a microscope ruler.

Nc1cc(N2CCCCC2)nc(N)[n+]1[O-] [minoxidil]
growth of hair (hair follicle length): about 1.5 mm
